Source: patent publication US6204277A, “Propionic acid derivatives and applications thereof” (Japan Tobacco Inc., priority 1996, dated 2001)

What was measured:
[1] = system: 3T3-L1 cells; test: Evaluation of Insulin Sensitivity Using 3T3-L1 Cells (triglyceride accumulation); assay type: cell-based; settings: Mus musculus, 96 h, insulin 10 ng/ml, 4 days, triglyceride increase by 10 μM pioglitazone taken as 100%, read-out: EC50 (dose necessary for a 50% increase of triglyceride)
Description: Evaluation of Insulin Sensitivity Using 3T3-L1 Cells 3T3-L1 cells (purchased from American Type Culture Collection) which were in the n=x+3 passage were purchased and subcultured until the passage number reached n=x+8. The cells were frozen in liquid nitrogen, thawed and suboultured till n=x+11. 0.05% Trypsin-0.53 mM ethylenediaminetetraacetic acid (EDTA) was added and the cells were harvested. The cells were suspended in Dulbecco's modified Eagle's medium (DMEM) [5% fetal bovine serum (FBS), supplemented with 5.6 mM glucose], plated on a 24 well plate at a concentration of 0.5×10^5 cells/well and cultured. Two days later, the medium was changed to DMEM [5% FBS, supplemented with 5.6 mM glucose] containing 1 μM dexamethasone and 0.5 mM isobutylmethylxanthine and the incubation was continued for 2 more days. The test compounds were dissolved in dimethyl sulfoxide and diluted 1000-fold with DMEM [2% FBS, supplemented with 5.6 mM glucose] containing insulin (10 ng/ml) to make the final concentration thereof to 0 nM-10 μM, and added to the cells, which cells were incubated for 4 days. After incubation, isopropanol was added by 200 μl per well and the cells were ruptured by a probe type ultrasonicator. The triglyceride amount was determined using a triglyceride determination kit. The activity of the compounds was determined by calculating relative triglyceride increase achieved by each compound when that achieved by 10 μM pioglitazone was taken as 100%, and expressed by the dose (EC50) necessary for a 50% increase of triglyceride. The test compounds were those of Examples 1-3, 5, 8, 15, 16, 18, 19, 22 and 28 and Reference Example 1. As a control compound, used was a known compound of the following formula. The above test concerns whether or not the insulin sensitivity of 3T3-L1 cells is promoted. […] When insulin acts on 3T3-L1 cells, it not only takes up glucose but permits accumulation of triglyceride in the cells. Thus, after allowing insulin to act, the cells are ruptured and triglyceride is quantitatively determined, whereby the degree of the action of insulin and the degree of sensitivity can be known.

[2] = system: diabetic mice (KK-Ay); test: Evaluation of Serum Glucose of Diabetic Mice; assay type: in vivo; settings: Mus musculus, 96 h; KK-Ay male mice, oral in diet, 4 days; read-out: Serum glucose ED50 (dose corresponding to a -50% change)
Description: Evaluation of Serum Glucose of Diabetic Mice
Genetically obese, hyperglycemic, hyperinsulinemic and hyperlipidemic diabetic mice (KK-Ay, male, Clea Japan, Inc., 8 weeks of age) were used for the pharmacological tests. Before the initiation of the drug administration, about 100 μl of blood was taken from orbital venosus under light ether anesthesia, and serum glucose was measured as described below. Based on the obtained value and body weight, the mice were grouped (6 per group) in such a manner that there existed no differences between the groups.
The test compounds were those of Examples 1 and 5 and Reference Example 1, as well as the above-mentioned control compound.
The test compounds were respectively dissolved in ethanol (three levels of concentrations per compound) and added to a powdered diet (CRF-1, ORIENTAL YEAST CO., LTD.). The diet was homogeneously mixed and ethanol was evaporated. The diet was given to the above-mentioned mice for 4 days, and the test compounds were orally administered (3 doses each). To a control group, CRF-1 powdered diet was given.
At day 4, blood samples (ca. 200 μl) were taken again in the same manner as above, and serum was separated (12,000 rpm, 5 min.) and used for the determination. Serum glucose was measured by hexokinase method (LYQUITECH glucose-HK-test; Boehlinger Marnheim Yamanouchi). Used for the determination was an automatic analyzer COBAS FARA II (Roche).
Changes in percentage of serum glucose of each group were calculated as follows from the values obtained at day 4 from the control group and the group administered with test compounds. [formula]
The changes in percentage of serum glucose was plotted on the axis of ordinates and the dose (mg/kg/day) of the test compound was plotted on the axis of abscissa (log), and the dose corresponding to a -50% change was read and taken as the ED50 of each test compound.

CCc1ccc(CCOc2ccc(CC3SC(=O)NC3=O)cc2)nc1 (centres unmarked) [Control compound, reference compound]
EC50 [1]: 180 nM
ED50 [2]: 10.6 mg/kg

COC(=O)C(Cc1ccc(OCCc2nc(-c3ccccc3)oc2C)cc1)C(=O)O (centres unmarked) [Example 1, 2-Methoxycarbonyl-3-[4-[2-(5-methyl-2-phenyl-4-oxazolyl)ethoxy]phenyl]propionic acid]
EC50 [1]: 0.45 nM
ED50 [2]: 0.12 mg/kg

COC(=O)C(Cc1ccc(OCCc2nc(-c3ccccc3)oc2C)cc1)C(N)=O (centres unmarked) [Example 2, Methyl 2-carbamoyl-3-[4-[2-(5-methyl-2-phenyl-4-oxazolyl)ethoxy]phenyl]propionate]
EC50 [1]: 90 nM

Cc1oc(-c2ccccc2)nc1CCOc1ccc(CC(C(N)=O)C(=O)O)cc1 (centres unmarked) [Example 3, 2-Carbamoyl-3-[4-[2-(5-methyl-2-phenyl-4-oxazolyl)ethoxy]phenyl]propionic acid]
EC50 [1]: 150 nM

Cc1oc(-c2ccccc2)nc1CCOc1ccc(CC(C(=O)O)C(=O)O)cc1 [Example 5, 2-[4-[2-(5-Methyl-2-phenyl-4-oxazolyl)ethoxy]benzyl]malonic acid]
EC50 [1]: 7.2 nM
ED50 [2]: 2.7 mg/kg

COC(=O)NC(=O)C(Cc1ccc(OCCc2nc(-c3ccccc3)oc2C)cc1)C(=O)OC (centres unmarked) [Example 8, Methyl 2-methoxycarbonylcarbamoyl-3-[4-[2-(5-methyl-2-phenyl-4-oxazolyl)ethoxy]phenyl]propionate]
EC50 [1]: 7 nM

Cc1oc(-c2cc3ccccc3s2)nc1CCOc1ccc(CCC(=O)NC(N)=O)cc1 [Example 15, N-[3-[4-[2-(2-(Benzothiophen-2-yl)-5-methyl-4-oxazolyl)ethoxy]phenyl]propionyl]urea]
EC50 [1]: 90 nM

COC(=O)CCc1ccc(OCCc2nc(-c3ccccc3)oc2C)cc1 [Example 16, Methyl 3-[4-[2-(5-methyl-2-phenyl-4-oxazolyl)ethoxy]phenyl]propionate]
EC50 [1]: 53 nM

Cc1oc(-c2ccccc2)nc1CCOc1ccc(CCC(N)=O)cc1 [Example 18, 3-[4-[2-(5-Methyl-2-phenyl-4-oxazolyl)ethoxy]phenyl]propionamide]
EC50 [1]: 65 nM

COC(=O)NC(=O)CCc1ccc(OCCc2nc(-c3ccccc3)oc2C)cc1 [Example 19, Methyl N-[3-[4-[2-(5-methyl-2-phenyl-4-oxazolyl)ethoxy]phenyl]propionyl]carbamide]
EC50 [1]: 90 nM

CSC(=O)NC(=O)CCc1ccc(OCCc2nc(-c3ccccc3)oc2C)cc1 [Example 22]
EC50 [1]: 90 nM

Cc1oc(-c2ccccc2)nc1CCOc1ccc(CC(C)(C(N)=O)C(=O)O)cc1 (centres unmarked) [Example 28, 2-Carbamoyl-2-methyl-3-[4-[2-(5-methyl-2-phenyl-4-oxazolyl)ethoxy]phenyl]propionic acid]
EC50 [1]: 73 nM

COC(=O)C(Cc1ccc(OCCc2nc(-c3ccccc3)oc2C)cc1)C(=O)OC [Reference Example 1, Dimethyl 2-[4-[2-(5-methyl-2-phenyl-4-oxazolyl)ethoxy]benzyl]malonate]
EC50 [1]: 0.38 nM
ED50 [2]: 0.17 mg/kg
